Source: US20150141437A1, “AMIDOPHENOXYPROPANOLAMINES” (MEDIZINISCHE UNIVERSITÄT WIEN, priority 2012, published 2015)
pIC50: −log10 of the molar value.

Experiments:
[1] = tested on: P. falciparum 3D7 (CQ-sensitive); assay: HRP2-based ELISA growth inhibition, 3D7 strain; assay type: cell-based; settings: Plasmodium falciparum, unmarked values: HRP II ELISA, 72 h
Excerpt: (§1) Highly sensitive HRP2-based ELISA and [^3H]-hypoxanthine incorporation assay were used as markers for inhibition of parasite growth as previously described (12, 14). A solvent control and a chloroquine (CQ) control were included in the HRP2-based ELISA. CQ, lumefantrine and artesunate were included as controls in the [^3H]-hypoxanthine assay series.
(§2) The assay protocol of the HRP2-based ELISA is described in more detail in the following paragraphs.
(§3) The P. falciparum clones were maintained in continuous culture as described previously (10). Briefly, 3D7 (CQ-sensitive), NF54, and K1 (CQ-resistant) P. falciparum clones were obtained from MR4/American Type Culture Collection, Manassas, Va., USA under the accession numbers MR4-102 (3D7), MRA-1000 (NF54), and MR4-159 (K1). P. falciparum cultures were maintained in 25 cm^2 flasks. Parasites were cultured in RPMI 1640 (Sigma Aldrich, Austria) medium containing 10% human serum at a hematocrit of 5% (blood group 0 negative) at 37° C. under an atmosphere of 5% CO2, 5% O2 and 90% N2. The medium was changed every 24 to 48 hours. The culture was diluted and fresh erythrocytes were added whenever the parasite density reached >1%.
(§4) Stock solutions of compounds of formula I were prepared in DMSO (10 mg/mL). Stock concentrations of chloroquine and lumefantrine always remained 1 mg/mL and were prepared in 70% ethanol. Coating of culture plates with compounds of formula I and controls: 96 wells culture plates were coated as described previously (11). Working standards were prepared by diluting the stock solutions in RPMI1640 to obtain the desired final concentrations. Serial three-fold dilutions (seven concentrations and one drug-free control well) of the drugs (25 μL/well) were dispensed in duplicate into standard 96-well micro culture plates. Chloroquine was included as a reference drug in all experiments.
(§5) After reaching a parasitemia of 5% or higher, 5 mL of cell medium mixture were centrifuged at 700 g for 5 minutes at room temperature (RT). Packed red cells were resuspended in 3 mL of 5% D-sorbitol (Sigma Aldrich, Austria) in water at RT and immediately centrifuged again at 700 g for 5 minutes at RT followed by three washes with 3 mL of RPMI1640 medium. […].
(§6) Samples were diluted with RPMI1640 medium containing 0.5% Albumax II (GIBCO, Invitrogen, Vienna, Austria) by adding uninfected red blood cells to 1.5% hematocrit and 0.05% parasitemia. 150 μL of this cell medium mixture was then added to each well of 96-well plates precoated with test compounds and incubated at 37° C. for 72 hours in a gas mixture containing 5% CO2, 5% O2, and 90% N2. After 72 hours the plates were frozen at −20° C. until the histidine rich protein II assay (23).
(§7) A highly sensitive HRPII ELISA was used based on two commercially available monoclonal antibodies (Immunology Consultants Laboratory, Inc., Newberg, Oreg.) directed against P. falciparum-specific HRPII: MPFM-55A, an immunoglobulin M antibody served as the primary capture antibody and HRP-conjugated MPFG-55P (Immunology Consultants Laboratory, Inc., Newberg, Oreg.) as secondary antibody. The ELISA was employed to assess growth inhibition as a measure of drug susceptibility as previously described. Optical density was measured at 450 nm using a standard ELISA plate reader (12-13).
(§8) Hyperbolic concentration response curves were fitted to the data points by nonlinear least squares using the solver add-in of the Excel software.
(§9) Indicated in TABLE 2 are the IC50 [μM] values for growth inhibition of the 3D7 (NF54) and K1 strains of P. falciparum for the compounds of formula I indicated with their formula numbers in TABLE 2. Unmarked IC50 values for K1 and 3D7 strains of P. falciparum have been determined by HRP II enzyme linked immunosorbent assay (ELISA) as described above. […]

[2] = tested on: P. falciparum K1 (CQ-resistant); assay: HRP2-based ELISA growth inhibition, K1 strain; assay type: cell-based; settings: Plasmodium falciparum, unmarked values: HRP II ELISA, 72 h
Excerpt: as §1, §2, §3, §4, §5, §6, §7, §8, §9

[3] = tested on: P. falciparum K1 (CQ-resistant); assay: [3H]-hypoxanthine incorporation assay, K1 strain; assay type: cell-based; settings: Plasmodium falciparum, values marked with asterisk: [3H]-hypoxanthine assay, read-out: IC50 growth inhibition K1 (*)
[4] = tested on: P. berghei, ANKA strain, GFP MRA-865; assay: P. berghei rodent malaria 4-day suppressive test; assay type: in vivo, Plasmodium berghei; settings: NMRI mice, 30 mg/kg 4x i.p.; for % activity (percent reduction of parasitemia) / % of control: day 4; for avg.Day 4 (parasitemia): day 4 (96 h post-infection); for % of control: control group taken as 100%
Procedure: Primary biological assessment of in vivo antimalarial efficacy of the compounds of the present invention was assessed using the P. berghei rodent malaria 4-day suppressive test as recently described (14) (parasite: P. berghei, ANKA strain, GFP MRA-865; mice: NMRI mice, SPF, females, 25±2 g. free from Eperythrozoon coccoides and Haemobartonella muris). The experimental groups were treated with a single dose of compounds of the present invention (30 mg/kg) by the i.p. route. The compounds were prepared at an appropriate concentration, as a solution or suspension containing 7% Tween80/3% ethanol. Day 1 to 3 (24 h, 48 h and 72 h post-infection), the experimental groups of mice were treated again with the same dose and by the same route as on day 0. Day 4 (24 h after the last treatment, i.e. 96 h post-infection), blood smears from all animals are prepared and stained with Giemsa. Parasitemia was determined as described elsewhere (14). The difference between the mean value of the control group (taken as 100%) and those of the experimental groups was calculated and expressed as percent reduction (=activity).
Indicated in TABLE 3 below are the percent reduction values for growth inhibition of the Plasmodium berghei parasite for the compounds of formula I indicated with their formula numbers of TABLE 2. Correlation of the formula numbers and chemical structures are set out in TABLE 1 of the example part.

[5] = tested on: P. falciparum NF54 (CQ sensitive); assay: [3H]-hypoxanthine incorporation assay, NF54 strain; assay type: cell-based; settings: Plasmodium falciparum, values marked with asterisk: [3H]-hypoxanthine assay, read-out: IC50 growth inhibition NF54*
[6] = tested on: chloroquine (CQ) sensitive (3D7) strain of P. falciparum; assay: antimalarial activity against 3D7 compared to propafenone (data not shown); assay type: cell-based

Structure (SMILES)	pIC50 [1]	pIC50 [2]	other results
CC(NCC(O)COc1ccccc1C(=O)NCc1ccccc1)C12CC3CC(CC(C3)C1)C2 (stereo not drawn) [Compound I-28, 2-[3-(1-Adamantan-1-yl-ethylamino)-2-hydroxy-propoxy]-N-benzyl-benzamide]	6.51	7.05	
COc1ccccc1CNC(=O)c1ccccc1OCC(O)CNCC12CC3CC(CC(C3)C1)C2 (stereo not drawn) [Compound I-29, 2-{3-[(Adamantan-1-ylmethyl)-amino]-2-hydroxy-propoxy}-N-(2-methoxy-benzyl)-benzamide]	7.01	8.30	
O=C(Nc1ccc(F)cc1F)c1ccccc1OCC(O)CNCC12CC3CC(CC(C3)C1)C2 (stereo not drawn) [Compound I-39, 2-{3-[(Adamantan-1-ylmethyl)-amino]-2-hydroxy-propoxy}-N-(2,4-difluoro-phenyl)-benzamide]			pIC50 [3]: 8.52; % activity (percent reduction of parasitemia) [4]: 49.01%; avg.Day 4 (parasitemia) [4]: 30.40; % of control [4]: 50.99%; pIC50 [5]: 8.05
Cc1ccc(NC(=O)c2ccccc2OCC(O)CNCC23CC4CC(CC(C4)C2)C3)cc1 (stereo not drawn) [Compound I-40, 2-{3-[(Adamantan-1-ylmethyl)-amino]-2-hydroxy-propoxy}-N-p-tolyl-benzamide]			pIC50 [3]: 8.70; % activity (percent reduction of parasitemia) [4]: 58.24%; avg.Day 4 (parasitemia) [4]: 24.90; % of control [4]: 41.76%; pIC50 [5]: 8.22
Cc1ccc(NC(=O)c2ccccc2OCC(O)CNC(C)C23CC4CC(CC(C4)C2)C3)cc1 (stereo not drawn) [Compound I-41, 2-[3-(1-Adamantan-1-yl-ethylamino)-2-hydroxy-propoxy]-N-p-tolyl-benzamide]	7.15	7.92	
O=C(Nc1cccc(C(F)(F)F)c1)c1ccccc1OCC(O)CNCC12CC3CC(CC(C3)C1)C2 (stereo not drawn) [Compound I-42, 2-{3-[(Adamantan-1-ylmethyl)-amino]-2-hydroxy-propoxy}-N-(3-trifluoromethyl-phenyl)-benzamide]			pIC50 [3]: 9.30; % activity (percent reduction of parasitemia) [4]: 97.76%; avg.Day 4 (parasitemia) [4]: 1.33; % of control [4]: 2.24%; pIC50 [5]: 8.70
C#CCOc1ccc(OCC(O)CNCc2ccc(C3(C(F)(F)F)N=N3)cc2)c(C(=O)NCCC(C)C)c1 (stereo not drawn) [Compound I-44, 2-{2-Hydroxy-3-[4-(3-trifluoromethyl-3H-diazirin-3-yl)-benzylamino]-propoxy}-N-(3-methyl-butyl)-5-prop-2-ynyloxy-benzamide]	5.88	6.33	
COc1ccc(CNC(=O)c2ccccc2OCC(O)CN2CCN(c3cccc(C)c3C)CC2)cc1 (stereo not drawn) [Compound I-51, 2-{3-[4-(2,3-Dimethyl-phenyl)-piperazin-1-yl]-2-hydroxy-propoxy}-N-(4-methoxy-benzyl)-benzamide]	5.69	6.87	
O=C(NCc1ccccc1)c1ccccc1OCC(O)CNC1CCCCCCCCCCC1 (stereo not drawn) [Compound I-52, N-Benzyl-2-(3-cyclododecylamino-2-hydroxy-propoxy)-benzamide]	6.25	7.28	
CCCNCC(O)COc1ccccc1C(=O)Nc1ccc(C)cc1 (stereo not drawn) [Compound I-54, 2-(2-Hydroxy-3-propylamino-propoxy)-N-p-tolyl-benzamide]	6.56	7.07	
O=C(Nc1ccc(F)cc1)c1ccccc1OCC(O)CNCC12CC3CC(CC(C3)C1)C2 (stereo not drawn) [Compound I-55, 2-{3-[(Adamantan-1-ylmethyl)-amino]-2-hydroxy-propoxy}-N-(4-fluoro-phenyl)-benzamide]			pIC50 [3]: 8.70; % activity (percent reduction of parasitemia) [4]: 67.35%; avg.Day 4 (parasitemia) [4]: 19.47; % of control [4]: 32.65%; pIC50 [5]: 8.22
CN(CC(O)COc1ccccc1C(=O)NCc1ccc(C(C)(C)C)cc1)C1C2CC3CC(C2)CC1C3 (stereo not drawn) [Compound I-64, 2-[3-(Adamantan-2-yl-methyl-amino)-2-hydroxy-propoxy]-N-(4-tert-butyl-benzyl)-benzamide]	5.83	6.40	
CCCNCC(O)COc1ccccc1C(=O)NCc1ccccc1 (stereo not drawn) [aza-propafenone]			decrease in IC50-value compared to propafenone (A) [6]: seventy-fold decrease

Now from value to compound, other results behind:

pIC50 [1]	pIC50 [2]	Structure (SMILES)	other results
6.65	7.47	O=C(NCc1ccccc1)c1ccccc1OCC(O)CN(CCCc1ccccc1)C1C2CC3CC(C2)CC1C3 (stereo not drawn) [Compound I-23, 2-{3-[Adamantan-2-yl-(3-phenyl-propyl)-amino]-2-hydroxy-propoxy}-N-benzyl-benzamide]	
6.75	7.30	O=C(NCc1ccccc1)c1ccccc1OCC(O)CNCC12CC3CC(CC(C3)C1)C2 (stereo not drawn) [Compound I-27, 2-{3-[(Adamantan-1-ylmethyl)-amino]-2-hydroxy-propoxy}-N-benzyl-benzamide]	
5.03	5.49	O=C(c1ccccc1)c1ccc(CNCC(O)COc2ccccc2C(=O)NCc2ccccc2)cc1 (stereo not drawn) [Compound I-49, 2-[3-(4-Benzoyl-benzylamino)-2-hydroxy-propoxy]-N-benzyl-benzamide]	
5.76	6.39	O=C(NCc1ccccc1)c1ccccc1OCC(O)CNCCCc1ccccc1 (stereo not drawn) [Compound I-50, N-Benzyl-2-[2-hydroxy-3-(3-phenyl-propylamino)-propoxy]-benzamide]	
6.71	7.54	O=C(NCc1ccccc1)c1ccccc1OCC(O)CNC1CCCCCCC1 (stereo not drawn) [Compound I-53, N-Benzyl-2-(3-cyclooctylamino-2-hydroxy-propoxy)-benzamide]	
6.15	7.52	O=C(NCc1ccccc1)c1ccccc1OCC(O)CNCCC12CC3CC(CC(C3)C1)C2 (stereo not drawn) [Compound I-62, 2-[3-(2-Adamantan-1-yl-ethylamino)-2-hydroxy-propoxy]-N-benzyl-benzamide]	
5.02	6.01	C#CCOc1cc(CN(CCC)CC(O)COc2ccccc2C(=O)NCc2ccccc2)ccc1OC (stereo not drawn) [Compound I-63, N-Benzyl-2-{2-hydroxy-3-[(4-methoxy-3-prop-2-ynyloxy-benzyl)-propyl-amino]-propoxy}-benzamide]	
